According to paper PMC9081329, “Pharmacokinetics, Mass Balance, Excretion, and Tissue Distribution of Plasmalogen Precursor PPI-1011” (Frontiers in Cell and Developmental Biology, 2022):

Assay: Single dose tissue distribution study (QWBA, LSC of blood and plasma)
Type: in vivo, Sprague-Dawley rats
Method: Six male rats were administered a single oral dose of [^14C]PPI-1011 at 100 mg/kg (200 μCi/kg) and one rat was sacrificed at each of the following time points after the administration of the dose: 8, 12, 18, 24, 48, or 168 h. Terminal blood was collected by cardiac puncture directly into tubes with K2EDTA, an aliquot was stored at 4°C until LSC was performed for radioactivity, while the remaining blood was processed to plasma and stored at −20°C until LSC. Following blood collection, the carcasses were frozen in a cold bath with hexanes and dry ice for at least 8 min and then dried and stored at −70°C for at least 5 h. The carcasses were transferred to a −20°C freezer for at least 12 h before embedding.
QWBA was used to determine radioactivity concentrations in the caecum (contents and mucosa), large intestine (contents and mucosa), small intestine (contents and mucosa), stomach (contents and mucosa), brain, choroid plexus, spinal cord, bone, skin, adrenal gland, pineal body, pituitary gland, thyroid gland, liver, kidney (cortex, medulla and whole kidney), urinary bladder (contents and wall), brown fat, white fat, eye (lens, uveal tract and whole eye), epididymis, prostate gland, testis, ovary, uterus, lung, exorbital lachrymal gland, Harderian gland, pancreas, salivary gland, skeletal muscle, myocardium, cardiac blood, bone marrow, lymph node, spleen, and thymus. As well, LSC was used to determine the total radioactivity in the whole blood and plasma.
The whole-body cryosectioning technique described by ([Ullberg, 1977]) was the basis for embedding and cryosectioning the rats assigned to this study. Each frozen carcass was shaved, and then the limbs and tail were removed prior to embedding. Chilled (4°C) 3% CMC (low viscosity) was utilized to provide a firm support of reinforced ice around each rat and for a secure attachment to the microtome stage. Upon thorough freezing of the embedding medium surrounding each rat, the frozen CMC block was removed from the freezing bath and four 3/8 inch holes were drilled into the block. One cryosection quality control standard (CQCS) was prepared with a known amount of radioactivity and at least 1 ml aliquots were added to each of the four drilled holes. CQCS data were utilized to evaluate the overall performance of the QWBA assay.
Each frozen rat was sagittally trimmed (50–100 μm) at −20°C until exposure of a few target tissues employing a Leica Cryomacrocut heavy-duty microtome (Leica Microsystems Inc.,). Disposable stainless steel Feather type H45L knives (Feather Safety Razor Co., Ltd.) were utilized for trimming and sectioning each frozen rat. Several thinner sections (50 μm) were discarded prior to obtaining multiple 50 μm sections at various cryosectioning levels for QWBA analysis. Upon the collection of at least 60 target tissues in multiple cryosectioning levels, the cryosections were kept in the Cryomacrocut cryochamber for a minimum of 18 h for dehydration depending upon the number of cryosections within the cryochamber. After dehydration was complete, the cryosections were transferred to ambient temperature for processing. Mounted whole-body cryosections and a set of 15 standards were sandwiched between a standard phosphor screen and an exposure cassette. All cryosections were exposed to the phosphor screen for 4-days in a cabinet protected with lead prior to scanning using a Typhoon PhosphorImager (Cytiva). MCID™ Analysis software (InterFocus Ltd.) was utilized to generate a calibration curve of the STD nominal concentrations (nCi/g) versus PhosphorImager response (counts/μm^2 minus background) by weighted (1/x) linear regression analysis ([Potchoiba et al., 1995]; [Potchoiba et al., 1998]). The linear regression curve was then utilized to determine the concentration (nCi/g) of total radioactivity in whole-body tissues and blood. Radioactivity concentrations were expressed as μg Eq/g based on the specific activity of the compound in the final dose formulations. […]

[1] = 24 h post single oral 100 mg/kg
[2] = 48 h post single oral 100 mg/kg

Compound: CC/C=C\C/C=C\C/C=C\C/C=C\C/C=C\C/C=C\CCC(=O)O[C@H](CO[14CH2]CCCCCCCCCCCCCCC)COC(=O)CCCCC1CCSS1 (stereo partly shown) [[^14C]PPI-1011]
- Radioactivity concentration, Choroid Plexus [1]: 9.85 μg equivalents/g
- Radioactivity concentration, Colliculus [1]: 2.06 μg equivalents/g
- Radioactivity concentration, Diaphragm [1]: 37.4 μg equivalents/g
- Radioactivity concentration, Epididymis [1]: 40.4 μg equivalents/g
- Radioactivity concentration, Esophagus [1]: 9.46 μg equivalents/g
- Radioactivity concentration, Exorbital Lacrimal Gland [1]: 9.66 μg equivalents/g
- Radioactivity concentration, Gastric Mucosa [1]: 48.7 μg equivalents/g
- Radioactivity concentration, Harderian Gland [1]: 10.5 μg equivalents/g
- Radioactivity concentration, Intra-Orbital Lacrimal Gland [1]: 7.56 μg equivalents/g
- Radioactivity concentration, Kidney [1]: 24.7 μg equivalents/g
- Radioactivity concentration, Large Intestines [1]: 180 μg equivalents/g
- Radioactivity concentration, Liver [1]: 73.4 μg equivalents/g
- Radioactivity concentration, Lung [1]: 30.2 μg equivalents/g
- Radioactivity concentration, Lymph Node [1]: 17.4 μg equivalents/g
- Radioactivity concentration, Medulla Oblongata [1]: 1.98 μg equivalents/g
- Radioactivity concentration, Muscle [1]: 7.57 μg equivalents/g
- Radioactivity concentration, Myocardium [1]: 31.0 μg equivalents/g
- Radioactivity concentration, Nasal Turbinates [1]: 4.81 μg equivalents/g
- Radioactivity concentration, Ocular - Uveal Tract [1]: 4.27 μg equivalents/g
- Radioactivity concentration, Ocular - Whole Eye [1]: 1.14 μg equivalents/g
- Radioactivity concentration, Olfactory Bulb [1]: 2.07 μg equivalents/g
- Radioactivity concentration, Pancreas [1]: 24.8 μg equivalents/g
- Radioactivity concentration, Parotid Gland [1]: 20.5 μg equivalents/g
- Radioactivity concentration, Pineal Gland [1]: 10.8 μg equivalents/g
- Radioactivity concentration, Pituitary Gland [1]: 16.7 μg equivalents/g
- Radioactivity concentration, Preputial Gland [1]: 112 μg equivalents/g
- Radioactivity concentration, Prostate [1]: 56.7 μg equivalents/g
- Radioactivity concentration, Renal Cortex [1]: 26.8 μg equivalents/g
- Radioactivity concentration, Renal Medulla [1]: 25.8 μg equivalents/g
- Radioactivity concentration, Salivary Gland [1]: 21.3 μg equivalents/g
- Radioactivity concentration, Seminal Vesicles [1]: 5.38 μg equivalents/g
- Radioactivity concentration, Skin - Non-Pigmented [1]: 9.26 μg equivalents/g
- Radioactivity concentration, Small Intestines [1]: 247 μg equivalents/g
- Radioactivity concentration, Spinal Cord [1]: 1.75 μg equivalents/g
- Radioactivity concentration, Spleen [1]: 46.3 μg equivalents/g
- Radioactivity concentration, Stomach [1]: 10.8 μg equivalents/g
- Radioactivity concentration, Testis [1]: 4.31 μg equivalents/g
- Radioactivity concentration, Thalamus [1]: 1.71 μg equivalents/g
- Radioactivity concentration, Thymus [1]: 9.79 μg equivalents/g
- Radioactivity concentration, Thyroid [1]: 27.7 μg equivalents/g
- Radioactivity concentration, Whole Brain [1]: 1.95 μg equivalents/g
- Radioactivity concentration, Adipose - Brown [2]: 132 μg equivalents/g
- Radioactivity concentration, Adipose - Brown (Vessel Wall) [2]: 98.6 μg equivalents/g
- Radioactivity concentration, Adipose - Subcutaneous [2]: 82.1 μg equivalents/g
- Radioactivity concentration, Adipose - Visceral [2]: 111 μg equivalents/g
- Radioactivity concentration, Adrenal Gland [2]: 201 μg equivalents/g
- Radioactivity concentration, Bladder Wall [2]: 10.7 μg equivalents/g
- Radioactivity concentration, Blood - QWBA [2]: 4.19 μg equivalents/g
- Radioactivity concentration, Bone Marrow [2]: 15.7 μg equivalents/g
- Radioactivity concentration, Bone Surface [2]: 0.508 μg equivalents/g
- Radioactivity concentration, Cecum [2]: 34.3 μg equivalents/g
- Radioactivity concentration, Cerebellum [2]: 2.60 μg equivalents/g
- Radioactivity concentration, Cerebrum [2]: 2.23 μg equivalents/g
- Radioactivity concentration, Choroid Plexus [2]: 14.4 μg equivalents/g
- Radioactivity concentration, Colliculus [2]: 3.30 μg equivalents/g
- Radioactivity concentration, Diaphragm [2]: 23.0 μg equivalents/g
- Radioactivity concentration, Epididymis [2]: 6.81 μg equivalents/g
- Radioactivity concentration, Esophagus [2]: 10.8 μg equivalents/g
- Radioactivity concentration, Exorbital Lacrimal Gland [2]: 6.13 μg equivalents/g
- Radioactivity concentration, Gastric Mucosa [2]: 37.5 μg equivalents/g
- Radioactivity concentration, Harderian Gland [2]: 11.1 μg equivalents/g
- Radioactivity concentration, Intra-Orbital Lacrimal Gland [2]: 6.64 μg equivalents/g
- Radioactivity concentration, Kidney [2]: 24.6 μg equivalents/g
- Radioactivity concentration, Large Intestines [2]: 19.1 μg equivalents/g
- Radioactivity concentration, Liver [2]: 40.0 μg equivalents/g
- Radioactivity concentration, Lung [2]: 22.9 μg equivalents/g
- Radioactivity concentration, Lymph Node [2]: 20.0 μg equivalents/g
- Radioactivity concentration, Medulla Oblongata [2]: 2.45 μg equivalents/g
- Radioactivity concentration, Muscle [2]: 8.42 μg equivalents/g
- Radioactivity concentration, Myocardium [2]: 26.6 μg equivalents/g
- Radioactivity concentration, Nasal Turbinates [2]: 5.03 μg equivalents/g
- Radioactivity concentration, Ocular - Uveal Tract [2]: 4.78 μg equivalents/g
- Radioactivity concentration, Ocular - Whole Eye [2]: 1.30 μg equivalents/g
- Radioactivity concentration, Olfactory Bulb [2]: 2.01 μg equivalents/g
- Radioactivity concentration, Pancreas [2]: 28.0 μg equivalents/g
- Radioactivity concentration, Parotid Gland [2]: 20.9 μg equivalents/g
- Radioactivity concentration, Pineal Gland [2]: 16.4 μg equivalents/g
- Radioactivity concentration, Pituitary Gland [2]: 19.2 μg equivalents/g
- Radioactivity concentration, Preputial Gland [2]: 76.5 μg equivalents/g
- Radioactivity concentration, Prostate [2]: 7.15 μg equivalents/g
- Radioactivity concentration, Renal Cortex [2]: 24.3 μg equivalents/g
- Radioactivity concentration, Renal Medulla [2]: 22.7 μg equivalents/g
- Radioactivity concentration, Salivary Gland [2]: 22.9 μg equivalents/g
- Radioactivity concentration, Seminal Vesicles [2]: 9.12 μg equivalents/g
- Radioactivity concentration, Skin - Non-Pigmented [2]: 13.4 μg equivalents/g
